From patent US8148391B2 (Cephalon, Inc., priority 2006, dated 2012)

What was measured:
[1] = biological target: T1, c-Met (cytoplasmic domain) (Homo sapiens, UniProt P08581); test: c-Met Kinase Assay (same methods as for ALK, with modifications); assay type: biochemical; details: c-Met kinase inhibition, 1 μM ATP; read-out: cMet Activity
T1 construct: 10 ng/mL c-Met (cytoplasmic domain, Invitrogen Corporation #PV3143); purchased Invitrogen Corporation PV3143
Outline: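 Plates were coated with phospholipase C-γ substrate (10 μg/mL) in TBS, and the reaction was started with 10 ng/mL c-Met cytoplasmic domain and run 15 min at 37 °C. Phosphoproduct was detected with Eu-N1-labelled PT66 antibody. IC50 came from a variable-slope sigmoidal fit of percent inhibition vs log concentration.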

[2] = biological target: T2, baculovirus-expressed ALK (Homo sapiens, UniProt Q9UM73); test: ALK Kinase Assay (ELISA-type, time-resolved fluorescence); assay type: biochemical; details: ALK kinase inhibition, 1 μM ATP; read-out: ALK Activity
T2 construct: host or cells: baculovirus expression system
Outline: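 Plates coated with phospholipase C-γ substrate (10 μg/mL in TBS); reaction started with 30 ng/ml ALK and run 15 min at 37° C. Phosphorylated substrate detected with Eu-N1-labeled PT66 antibody. IC50 from sigmoidal variable-slope fit of percent inhibition vs log concentration.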

T2 sequence (Q9UM73 19-1620): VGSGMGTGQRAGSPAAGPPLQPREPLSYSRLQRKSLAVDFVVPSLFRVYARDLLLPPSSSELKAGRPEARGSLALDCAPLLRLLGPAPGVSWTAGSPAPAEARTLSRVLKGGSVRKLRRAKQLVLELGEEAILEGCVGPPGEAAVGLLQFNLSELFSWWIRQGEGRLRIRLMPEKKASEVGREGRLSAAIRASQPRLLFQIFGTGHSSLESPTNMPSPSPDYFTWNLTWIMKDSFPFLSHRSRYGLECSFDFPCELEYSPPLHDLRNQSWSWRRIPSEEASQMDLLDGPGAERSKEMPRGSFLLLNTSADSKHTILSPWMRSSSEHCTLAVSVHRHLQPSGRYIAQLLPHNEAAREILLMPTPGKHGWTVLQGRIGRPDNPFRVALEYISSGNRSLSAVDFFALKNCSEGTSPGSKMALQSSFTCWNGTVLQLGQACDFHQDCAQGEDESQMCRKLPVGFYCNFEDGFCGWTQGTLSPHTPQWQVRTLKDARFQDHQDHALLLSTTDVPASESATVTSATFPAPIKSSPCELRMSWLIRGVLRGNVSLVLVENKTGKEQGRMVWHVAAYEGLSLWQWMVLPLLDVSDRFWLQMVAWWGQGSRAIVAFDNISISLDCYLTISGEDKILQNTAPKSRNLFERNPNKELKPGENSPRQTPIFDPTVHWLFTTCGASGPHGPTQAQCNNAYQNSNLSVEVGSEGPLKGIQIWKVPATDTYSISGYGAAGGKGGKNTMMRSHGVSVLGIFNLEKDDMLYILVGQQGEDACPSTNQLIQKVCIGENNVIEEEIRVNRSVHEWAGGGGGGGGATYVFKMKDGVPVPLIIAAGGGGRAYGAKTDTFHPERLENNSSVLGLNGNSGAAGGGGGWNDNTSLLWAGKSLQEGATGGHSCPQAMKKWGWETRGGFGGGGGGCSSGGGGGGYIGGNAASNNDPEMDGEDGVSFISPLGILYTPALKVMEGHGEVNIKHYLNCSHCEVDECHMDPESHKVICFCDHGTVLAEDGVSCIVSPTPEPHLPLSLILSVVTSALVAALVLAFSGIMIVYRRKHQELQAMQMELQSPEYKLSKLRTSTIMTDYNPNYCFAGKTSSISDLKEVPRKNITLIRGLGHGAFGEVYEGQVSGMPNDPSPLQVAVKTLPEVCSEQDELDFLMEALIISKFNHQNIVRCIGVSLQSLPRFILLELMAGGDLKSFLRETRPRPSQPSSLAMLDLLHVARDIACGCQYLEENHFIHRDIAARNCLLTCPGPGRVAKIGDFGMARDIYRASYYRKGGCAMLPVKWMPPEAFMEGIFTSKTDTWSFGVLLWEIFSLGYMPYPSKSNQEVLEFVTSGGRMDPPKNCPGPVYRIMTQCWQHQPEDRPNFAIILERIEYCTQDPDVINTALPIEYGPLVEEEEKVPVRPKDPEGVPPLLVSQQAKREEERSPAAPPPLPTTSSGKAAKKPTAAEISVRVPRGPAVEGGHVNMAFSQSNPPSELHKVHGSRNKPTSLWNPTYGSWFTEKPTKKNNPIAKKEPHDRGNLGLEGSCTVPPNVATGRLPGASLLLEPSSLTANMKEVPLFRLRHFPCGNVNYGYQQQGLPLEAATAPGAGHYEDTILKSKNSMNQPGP
T1 sequence (P08581 956-1390 limits assumed): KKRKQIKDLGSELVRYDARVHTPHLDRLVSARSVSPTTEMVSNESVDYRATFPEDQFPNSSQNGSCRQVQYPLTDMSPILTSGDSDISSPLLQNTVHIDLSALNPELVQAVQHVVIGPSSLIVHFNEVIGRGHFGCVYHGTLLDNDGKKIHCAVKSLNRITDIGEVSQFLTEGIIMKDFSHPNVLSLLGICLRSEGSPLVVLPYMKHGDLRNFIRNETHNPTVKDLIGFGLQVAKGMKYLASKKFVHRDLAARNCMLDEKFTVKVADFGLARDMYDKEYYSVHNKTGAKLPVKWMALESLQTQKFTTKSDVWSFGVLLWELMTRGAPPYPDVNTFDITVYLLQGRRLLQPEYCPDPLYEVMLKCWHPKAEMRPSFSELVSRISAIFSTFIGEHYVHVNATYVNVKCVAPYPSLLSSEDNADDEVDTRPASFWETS

## CCN1C(=O)CCC(C)(C)c2ccc(Nc3ncc(Cl)c(Nc4c(F)cc(F)cc4C(=O)NC)n3)cc21 [Example 1615, 2-[5-Chloro-2-(1-ethyl-5,5-dimethyl-2-oxo-2,3,4,5-tetrahydro-1H-benzo[b]azepin-8-ylamino)-pyrimidin-4-ylamino]-3,5-difluoro-N-methyl-benzamide]
[1]
  IC50: < 100 nM
[2]
  IC50: < 100 nM

## CNC(=O)c1cccc(F)c1Nc1nc(Nc2ccc3c(c2)N(C(=O)CN2C(=O)c4ccccc4C2=O)CCCC3(C)C)ncc1Cl [Example 1616, 2-(5-Chloro-2-{1-[2-(1,3-dioxo-1,3-dihydro-isoindol-2-yl)-acetyl]-5,5-dimethyl-2,3,4,5-tetrahydro-1H-benzo[b]azepin-8-ylamino}-pyrimidin-4-ylamino)-3-fluoro-N-methyl-benzamide]
[1]
  IC50: 100 to 1000 nM
[2]
  IC50: 100 to 1000 nM

## CNC(=O)c1cccc(F)c1Nc1nc(Nc2ccc3c(c2)N(C(=O)CN)CCCC3(C)C)ncc1Cl [Example 1617, 2-{2-[1-(2-Amino-acetyl)-5,5-dimethyl-2,3,4,5-tetrahydro-1H-benzo[b]azepin-8-ylamino]-5-chloro-pyrimidin-4-ylamino}-3-fluoro-N-methyl-benzamide]
[1]
  IC50: < 100 nM
[2]
  IC50: 100 to 1000 nM

## C#CCNC(=O)c1cccc(F)c1Nc1nc(Nc2ccc3c(c2)N(C(=O)CN2C(=O)c4ccccc4C2=O)CCCC3(C)C)ncc1Cl [Example 1618, 2-(5-Chloro-2-{1-[2-(1,3-dioxo-1,3-dihydro-isoindol-2-yl)-acetyl]-5,5-dimethyl-2,3,4,5-tetrahydro-1H-benzo[b]azepin-8-ylamino}-pyrimidin-4-ylamino)-3-fluoro-N-prop-2-ynyl-benzamide]
[1]
  IC50: < 100 nM
[2]
  IC50: > 10000 nM

## C#CCNC(=O)c1cccc(F)c1Nc1nc(Nc2ccc3c(c2)N(C(=O)CN)CCCC3(C)C)ncc1Cl [Example 1619, 2-{2-[1-(2-Amino-acetyl)-5,5-dimethyl-2,3,4,5-tetrahydro-1H-benzo[b]azepin-8-ylamino]-5-chloro-pyrimidin-4-ylamino}-3-fluoro-N-prop-2-ynyl-benzamide]
[1]
  IC50: < 100 nM
[2]
  IC50: 100 to 1000 nM

## CNC(=O)c1cccc(F)c1Nc1nc(Nc2ccc3c(c2)N(C(=O)N2CCCC2)CCCC3(C)C)ncc1Cl [Example 1620, 2-{5-Chloro-2-[5,5-dimethyl-1-(pyrrolidine-1-carbonyl)-2,3,4,5-tetrahydro-1H-benzo[b]azepin-8-ylamino]-pyrimidin-4-ylamino}-3-fluoro-N-methyl-benzamide]
[1]
  IC50: 100 to 1000 nM
[2]
  IC50: 100 to 1000 nM

## CC1(C)CCC(=O)Nc2cc(Nc3ncc(Cl)c(Nc4ccccc4S(=O)(=O)N4CCC(O)C4)n3)ccc21 (stereo not shown) [Example 1621, 8-{5-Chloro-4-[2-(3-hydroxy-pyrrolidine-1-sulfonyl)-phenylamino]-pyrimidin-2-ylamino}-5,5-dimethyl-1,3,4,5-tetrahydro-benzo[b]azepin-2-one]
[1]
  IC50: < 100 nM
[2]
  IC50: < 100 nM

## C#CCNC(=O)c1cc(F)cc(F)c1Nc1nc(Nc2ccc3c(c2)N(C(=O)N2CCCC2)CCCC3(C)C)ncc1Cl [Example 1622, 2-{5-Chloro-2-[5,5-dimethyl-1-(pyrrolidine-1-carbonyl)-2,3,4,5-tetrahydro-1H-benzo[b]azepin-8-ylamino]-pyrimidin-4-ylamino}-3,5-difluoro-N-prop-2-ynyl-benzamide]
[1]
  IC50: 100 to 1000 nM
[2]
  IC50: 1000 to 10000 nM

## C#CCNC(=O)c1sccc1Nc1nc(Nc2ccc3c(c2)NC(=O)CCC3(C)C)ncc1Cl [Example 1623, 3-[5-Chloro-2-(5,5-dimethyl-2-oxo-2,3,4,5-tetrahydro-1H-benzo[b]azepin-8-ylamino)-pyrimidin-4-ylamino]-thiophene-2-carboxylic acid prop-2-ynylamide]
[1]
  IC50: > 10000 nM
[2]
  IC50: 100 to 1000 nM

## CNC(=O)c1cc(-c2cnn(C)c2)cc(F)c1Nc1nc(Nc2ccc3c(c2)NC(=O)CCC3(C)C)ncc1Cl [Example 1624, 2-[5-Chloro-2-(5,5-dimethyl-2-oxo-2,3,4,5-tetrahydro-1H-benzo[b]azepin-8-ylamino)-pyrimidin-4-ylamino]-3-fluoro-N-methyl-5-(1-methyl-1H-pyrazol-4-yl)-benzamide]
[1]
  IC50: < 100 nM
[2]
  IC50: < 100 nM

## CN(C)[C@@H]1CCN(S(=O)(=O)c2ccccc2Nc2nc(Nc3ccc4c(c3)NC(=O)CCC4(C)C)ncc2Cl)C1 [Example 1625, 8-{5-Chloro-4-[2-((R)-3-dimethylamino-pyrrolidine-1-sulfonyl)-phenylamino]-pyrimidin-2-ylamino}-5,5-dimethyl-1,3,4,5-tetrahydro-benzo[b]azepin-2-one]
[1]
  IC50: 1000 to 10000 nM
[2]
  IC50: < 100 nM

## CNC(=O)c1cccc(F)c1Nc1nc(Nc2ccc3c(c2)N(C(C)C)CCCC3(C)C)ncc1Cl [Example 1626, 2-[5-Chloro-2-(1-isopropyl-5,5-dimethyl-2,3,4,5-tetrahydro-1H-benzo[b]azepin-8-ylamino)-pyrimidin-4-ylamino]-3-fluoro-N-methyl-benzamide]
[1]
  IC50: 100 to 1000 nM
[2]
  IC50: 100 to 1000 nM

## C#CCNC(=O)c1cccc(F)c1Nc1nc(Nc2ccc3c(c2)N(C(C)C)CCCC3(C)C)ncc1Cl [Example 1627, 2-[5-Chloro-2-(1-isopropyl-5,5-dimethyl-2,3,4,5-tetrahydro-1H-benzo[b]azepin-8-ylamino)-pyrimidin-4-ylamino]-3-fluoro-N-prop-2-ynyl-benzamide]
[1]
  IC50: 1000 to 10000 nM
[2]
  IC50: 1000 to 10000 nM

## CC(C)N1CCCC(C)(C)c2ccc(Nc3ncc(Cl)c(N[C@H]4[C@@H](C(N)=O)[C@@H]5C=C[C@H]4C5)n3)cc21 [Example 1628, (1S,2S,3R,4R)-3-[5-Chloro-2-(1-isopropyl-5,5-dimethyl-2,3,4,5-tetrahydro-1H-benzo[b]azepin-8-ylamino)-pyrimidin-4-ylamino]-bicyclo[2.2.1]hept-5-ene-2-carboxylic acid amide]
[1]
  IC50: > 10000 nM
[2]
  IC50: < 100 nM

## COc1cc(N2CCOCC2)ccc1Nc1nc(Nc2ccc3c(c2)N(C(C)C)CCCC3(C)C)ncc1Cl [Example 1629, 5-Chloro-N*2*-(1-isopropyl-5,5-dimethyl-2,3,4,5-tetrahydro-1H-benzo[b]azepin-8-yl)-N*4*-(2-methoxy-4-morpholin-4-yl-phenyl)-pyrimidine-2,4-diamine]
[1]
  IC50: > 10000 nM
[2]
  IC50: 100 to 1000 nM

## CNC(=O)c1cccc(F)c1Nc1nc(Nc2ccc3c(c2)N(C(=O)CN(C)C)CCCC3(C)C)ncc1Cl [Example 1630, 2-{5-Chloro-2-[1-(2-dimethylamino-acetyl)-5,5-dimethyl-2,3,4,5-tetrahydro-1H-benzo[b]azepin-8-ylamino]-pyrimidin-4-ylamino}-3-fluoro-N-methyl-benzamide]
[1]
  IC50: 100 to 1000 nM
[2]
  IC50: 100 to 1000 nM

## C#CCNC(=O)c1cccc(F)c1Nc1nc(Nc2ccc3c(c2)N(C(=O)CN(C)C)CCCC3(C)C)ncc1Cl [Example 1631, 2-{5-Chloro-2-[1-(2-dimethylamino-acetyl)-5,5-dimethyl-2,3,4,5-tetrahydro-1H-benzo[b]azepin-8-ylamino]-pyrimidin-4-ylamino}-3-fluoro-N-prop-2-ynyl-benzamide]
[1]
  IC50: 100 to 1000 nM
[2]
  IC50: 100 to 1000 nM

## CCN1CCCC(C)(C)c2ccc(Nc3ncc(Cl)c(Nc4c(F)cccc4C(=O)NC)n3)cc21 [Example 1632, 2-[5-Chloro-2-(1-ethyl-5,5-dimethyl-2,3,4,5-tetrahydro-1H-benzo[b]azepin-8-ylamino)-pyrimidin-4-ylamino]-3-fluoro-N-methyl-benzamide]
[1]
  IC50: 100 to 1000 nM
[2]
  IC50: 100 to 1000 nM

## C#CCNC(=O)c1cccc(F)c1Nc1nc(Nc2ccc3c(c2)N(CC)CCCC3(C)C)ncc1Cl [Example 1633, 2-[5-Chloro-2-(1-ethyl-5,5-dimethyl-2,3,4,5-tetrahydro-1H-benzo[b]azepin-8-ylamino)-pyrimidin-4-ylamino]-3-fluoro-N-prop-2-ynyl-benzamide]
[1]
  IC50: 100 to 1000 nM
[2]
  IC50: 100 to 1000 nM

## CCN1CCCC(C)(C)c2ccc(Nc3ncc(Cl)c(N[C@H]4[C@@H](C(N)=O)[C@@H]5C=C[C@H]4C5)n3)cc21 [Example 1634, (1S,2S,3R,4R)-3-[5-Chloro-2-(1-ethyl-5,5-dimethyl-2,3,4,5-tetrahydro-1H-benzo[b]azepin-8-ylamino)-pyrimidin-4-ylamino]-bicyclo[2.2.1]hept-5-ene-2-carboxylic acid amide]
[1]
  IC50: 1000 to 10000 nM
[2]
  IC50: < 100 nM

## CCN1CCCC(C)(C)c2ccc(Nc3ncc(Cl)c(Nc4ccc(N5CCOCC5)cc4OC)n3)cc21 [Example 1635, 5-Chloro-N*2*-(1-ethyl-5,5-dimethyl-2,3,4,5-tetrahydro-1H-benzo[b]azepin-8-yl)-N*4*-(2-methoxy-4-morpholin-4-yl-phenyl)-pyrimidine-2,4-diamine]
[1]
  IC50: > 10000 nM
[2]
  IC50: 100 to 1000 nM

## CC(=O)NC1CC(C)(C)c2ccc(Nc3ncc(Cl)c(Nc4c(F)cccc4C(=O)NCC#N)n3)cc2NC1=O (stereo not shown) [Example 1636, 2-[2-(3-Acetylamino-5,5-dimethyl-2-oxo-2,3,4,5-tetrahydro-1H-benzo[b]azepin-8-ylamino)-5-chloro-pyrimidin-4-ylamino]-N-cyanomethyl-3-fluoro-Benzamide]
[1]
  IC50: < 100 nM
[2]
  IC50: < 100 nM

## COCC(=O)NC1CC(C)(C)c2ccc(Nc3ncc(Cl)c(Nc4c(F)cccc4C(=O)NCC#N)n3)cc2NC1=O (stereo not shown) [Example 1637, 2-{5-Chloro-2-[3-(2-methoxy-acetylamino)-5,5-dimethyl-2-oxo-2,3,4,5-tetrahydro-1H-benzo[b]azepin-8-ylamino]-pyrimidin-4-ylamino}-N-cyanomethyl-3-fluoro-benzamide]
[1]
  IC50: < 100 nM
[2]
  IC50: < 100 nM
